From ChEMBL document CHEMBL3988442, “University of Dundee, Small-Polar-MMV Screening Library” (2021)

How the values were obtained:
[1] = microbe, parasite or virus in culture; conditions: Mycobacterium tuberculosis, 72 h, read-out: pIC50 (converted)
[2] = microbe, parasite or virus in culture; conditions: Mycobacterium tuberculosis, 96 h, read-out: pIC50 (converted)

SMILES | IC50 [1] [µM] | IC50 [2] [µM]
Cc1cc(CN2CCCC2)cc(Oc2ccc3c(c2)CC(CN)O3)c1 (configuration not stated) | > 50.1 | > 50.1
CCS(=O)(=O)NC1CCN(c2cc(Br)ccn2)CC1 | 146 | > 501
CC(C)CCNC(=O)Nc1ccc(-n2cccn2)nc1 | 103 | 90
O=S1(=O)CCCN1CCNc1ncc(Cl)cc1Cl | 111 | > 501
COc1cccc(C(CO)NC(=O)Cc2ccc(F)c(Br)c2)c1 (configuration not stated) | > 50.1 | > 50.1
COc1ccc(CN(C(=O)C2CCCS2)c2ccncc2)cc1 (configuration not stated) | > 50.1 | > 50.1
O=C(COC(=O)c1cccs1)NCc1ccco1 | 204 | > 501
CC(C)c1ccoc1C(=O)N(C)c1cc(C#N)ccn1 | 140 | > 501
CNc1cc(CN(C)Cc2cccs2)ccn1 | 276 | 276
CCC(N)C(=O)Nc1ccc2c(c1)CCC2 (configuration not stated) | 170 | 176
CC(C)CC(O)C(=O)NCc1cc2ccccc2[nH]1 (configuration not stated) | > 501 | > 501
Cc1c(C(=O)Nc2ccc3c(c2)OCCO3)cnn1C | > 501 | > 501
Cn1c(C2CC2)nc2c1CCN(Cc1nc(-c3ccsc3)no1)C2 | 16.2 | > 50.1
COc1cc(Cl)cc(CN2CCCC(N3CCCC3)C2)c1OC (configuration not stated) | 23.3 | 28.3
COc1ccc(C(=O)NCc2ncnn2C)cc1Br | 326 | > 501
CC(C)CCNC(=O)Cn1c(=O)oc2ccccc21 | 401 | 274
NCC1CCCN1CCc1ccccc1 (configuration not stated) | > 501 | > 501
CCc1cc(CNC(=O)c2ccc(F)c(F)c2)[nH]n1 | 175 | 102
Cc1ccc(C(N)=O)cc1NCC(C)C | > 501 | > 501
NCCNS(=O)(=O)c1cccc(I)c1 | 326 | > 501
CCS(=O)(=O)N1CCCCC1c1nc(C(C)C)no1 (configuration not stated) | > 50.1 | > 50.1
CC(C)NC(=O)NC(C)c1ccccc1 (configuration not stated) | > 501 | > 501
CCc1c(C(=O)NCC(=O)OCC2CC2)cnn1-c1ccc(C)cc1 | 45.9 | 18.9
c1csc(CSCCNC2=NCCN2)c1 | > 501 | > 501
CN(C)S(=O)(=O)N1CCCC1c1ccsc1 (configuration not stated) | 277 | > 501
CN(Cc1ccco1)C(=O)CN1CCc2sccc2C1 | 60 | 89.2

SMILES | IC50 [1] [µM] | IC50 [2] [µM]
Cc1nc(C2CN(Cc3ccc(F)cc3Br)CCO2)no1 (configuration not stated) | 33 | 11.2
CSCCNC(=O)c1coc(COc2ccc3sc(C)nc3c2)n1 | > 50.1 | > 50.1
Cc1cc(=O)[nH]c(-n2nc(-c3ccccc3)cc2N)n1 | 43.5 | > 50.1
CC(CNC(=O)c1ccon1)Oc1cccc(Br)c1 (configuration not stated) | 25.7 | 32.6
CCn1nnc(NCc2ccccc2)n1 | 229 | > 501
c1ccc2oc(NC3CCCN(Cc4noc(C5CC5)n4)C3)nc2c1 (configuration not stated) | 24.9 | 13.5
Nc1nc(-c2c(F)cccc2F)co1 | > 501 | > 501
NS(=O)(=O)c1cccc2c1CCCN2Cc1nccs1 | > 501 | > 501
Cc1cc(N2CCNCC2)nc2ccccc12 | 140 | 93.7
O=C(NCc1ccc2c(c1)OCCCO2)c1cscn1 | 107 | 111
CCNc1ccnc(N2Cc3cnn(Cc4ccc(F)cc4)c3C2)n1 | > 50.1 | 27.4
COC(=O)CSc1nc(N)c2ccsc2n1 | 250 | > 501
CCC(O)CN1CCN(c2ncccc2Br)CC1 (configuration not stated) | > 501 | > 501
CC(NC(=O)CNc1cc(F)cc(Br)c1)C(=O)N(C)C (configuration not stated) | 289 | > 501
COc1cc(CNC(=O)Nc2ccnc(C)c2)ccn1 | 100 | 98.2
NC(=O)NC(=O)CCS(=O)(=O)c1cc(F)ccc1F | 70.1 | 139
CN(C(=O)CN)c1ccc(-c2ccccc2)cc1 | 305 | 260
O=C(NCC1(c2ccc(F)cc2)CC1)N1CCC2(CCOC2)C1 (configuration not stated) | > 50.1 | > 50.1
N#Cc1ccc(C(=O)NCC2CC2)cc1 | 123 | 123
CCS(=O)(=O)N1CCC(c2nnc(CN3CCCCCC3)n2C)CC1 | > 50.1 | > 50.1
CN1CCOC[C@H]1c1nc(-c2cccnc2)c[nH]1 | > 50.1 | > 50.1
CN(Cc1c(F)cccc1Cl)S(=O)(=O)N1CCOCC1 | 270 | 269
CN(C)C(CN)c1ccc(F)cc1 (configuration not stated) | 244 | > 501
CCN1CCCC1CNC(=O)c1cccc(C)n1 (configuration not stated) | > 501 | > 501
CNC(=O)C1CCN(C(=O)CCc2cccs2)CC1 | 38.8 | 111
NS(=O)(=O)N1CCN(CCCc2cccc(F)c2)CC1 | > 501 | > 501

SMILES | IC50 [1] [µM] | IC50 [2] [µM]
OCCC1CCN(Cc2ccccc2)C1 (configuration not stated) | > 501 | > 501
Nc1cc(-c2ccc(I)cc2)nn1CCO | > 501 | > 501
CNC(=O)Nc1ccc(OC)c(OCCOC)c1 | 138 | 219
CCc1nc(NC2CCCN(C(=O)c3cccs3)C2)c2cnn(C)c2n1 (configuration not stated) | > 50.1 | > 50.1
CC(C)CC1CCN(C(=O)CCn2cnnn2)C1 (configuration not stated) | 28.3 | 77.2
NCC(=O)N1CCCC(CCc2c(F)cccc2F)C1 (configuration not stated) | 238 | 258
COc1cccc(-c2ncc(CN3CC[C@H]4CC[C@@H](C3)N4)s2)c1 | 41.2 | 24.5
CC(=O)N1CCCC(c2cnc(-c3c(C)nn(C)c3C)cn2)C1 (configuration not stated) | > 50.1 | > 50.1
COc1ccc(COCC(O)CN(C)c2ccc(C)cc2C)cc1 (configuration not stated) | 16 | 16.8
NCc1ccc(NC(=O)c2ccccc2O)cc1 | 159 | > 501
Cc1ccc(-c2nc(CSc3nnc(N)[nH]3)no2)cc1 | 107 | 80.2
CCNC1=NN=C(c2ccc(OC)c(F)c2)CS1 | 137 | 134
CC(C)CSCCSc1nnc(N)[nH]1 | 240 | > 501
NCCn1nc(C2CCN(Cc3ccccc3Cl)C2)c2nccnc21 (configuration not stated) | > 50.1 | > 50.1
CC(C)CCC(C)NC(=O)Nc1ccccn1 (configuration not stated) | 13.6 | 5.47
CN(CCn1cnnc1)c1ccc2ccc(F)cc2n1 | 212 | 259
Cc1nsc(C(=O)NCCc2ccc(Cl)cc2)n1 | 19.4 | 12.7
Cc1cc(C)c(C)c(OCC(=O)N2CCN(C)CC2)c1 | 111 | 129
Clc1ccc2c(c1)CNCCO2 | 33.4 | 67.8
Cc1cc(CN2CCc3nc(C(C)C)nc(O)c3CC2)c(C)s1 | > 50.1 | > 50.1
CCOC1CCN(CCc2nc(-c3cccc(Cl)c3)no2)CC1 | 32.4 | 28.2
O=C(NCCn1cccc1)c1[nH]nc2c1CCCC2 | 248 | > 501
Cc1oc(-c2ccc(Cl)cc2)nc1C(=O)NC1=NCCS1 | > 50.1 | > 50.1
CSCCC(CO)NC(=O)c1occc1C(C)C (configuration not stated) | 258 | > 501
